Measured values as given in ChEMBL document CHEMBL5120841, “Discovery of novel pleuromutilin derivatives as potent antibacterial agents” (2022).
Values after ≈ are worked out from the molar mass of the structure shown. Active and inactive are the calls of the source. The calls are words filed in the database; no cut-off is given here.

Columns and labels:
Staphylococcus aureus [1] = experiment: Antibacterial activity against Staphylococcus aureus ATCC 25923 assessed as bacterial growth inhibition incubated for 18 to 24 hrs by microtiter dilution method; type: functional; conditions: time 18-24 hrs
Staphylococcus aureus [2] = experiment: Antibacterial activity against methicillin-resistant Staphylococcus aureus BNCC 337371 assessed as bacterial growth inhibition incubated for 18 to 24 hrs by microtiter dilution method; type: functional; conditions: time 18-24 hrs
Enterococcus faecalis = experiment: Antibacterial activity against Enterococcus faecalis assessed as bacterial growth inhibition incubated for 18 to 24 hrs by microtiter dilution method; type: functional; conditions: time 18-24 hrs
Escherichia coli = experiment: Antibacterial activity against Escherichia coli CICC 10389 assessed as bacterial growth inhibition incubated for 18 to 24 hrs by microtiter dilution method; type: functional; conditions: time 18-24 hrs
[3] = test system: Staphylococcus epidermidis; experiment: Antibacterial activity against methicillin-resistant Staphylococcus epidermidis ATCC 51625 assessed as bacterial growth inhibition incubated for 18 to 24 hrs by microtiter dilution method; type: functional; conditions: time 18-24 hrs
Bacillus subtilis = experiment: Antibacterial activity against Bacillus subtilis assessed as bacterial growth inhibition incubated for 18 to 24 hrs by microtiter dilution method; type: functional; conditions: time 18-24 hrs
Staphylococcus aureus [4] = experiment: Antibacterial activity against Staphylococcus aureus ATCC 25923 assessed as reduction on bacterial count at 6X MIC incubated for 24 hrs by time killing assay; type: functional
Staphylococcus aureus [5] = experiment: Antibacterial activity against methicillin-resistant Staphylococcus aureus BNCC 337371 assessed as reduction on bacterial count at 6X MIC incubated for 24 hrs by time killing assay; type: functional
Staphylococcus aureus [6] = experiment: Antibacterial activity against methicillin-resistant Staphylococcus aureus BNCC 337371 infected in Kunming mouse lung assessed as reduction on neutrophil infiltration at 40 mg/kg,ip measured after 7 days by hematoxylin and eosin staining based light microscopic analysis; type: functional, organism-based; conditions: time 7.0 day
Staphylococcus aureus [7] = experiment: Antibacterial activity against methicillin-resistant Staphylococcus aureus BNCC 337371 infected in Kunming mouse lung assessed as reduction on neutrophil infiltration at 15 mg/kg,ip measured after 7 days by hematoxylin and eosin staining based light microscopic analysis; type: functional, organism-based; conditions: time 7.0 day
Staphylococcus aureus [8] = experiment: Antibacterial activity against methicillin-resistant Staphylococcus aureus BNCC 337371 infected in Kunming mouse lung assessed as reduction on pulmonary fibrosis at 15 mg/kg,ip measured after 7 days by hematoxylin and eosin staining based light microscopic analysis; type: functional, organism-based; conditions: time 7.0 day
Staphylococcus aureus [9] = experiment: Antibacterial activity against methicillin-resistant Staphylococcus aureus BNCC 337371 infected in Kunming mouse assessed as reduction on bacterial growth by measuring survival rate at ip dosed measured after 7 days by Bliss method; type: functional; conditions: BNCC 337371, 168 h, time 7 day
Staphylococcus aureus [10] = experiment: Antibacterial activity against methicillin-resistant Staphylococcus aureus BNCC 337371 infected in Kunming mouse lung assessed as reduction on bacterial growth at 15 mg/kg,ip dosed measured after 7 days by 10-fold dilution method; type: functional; conditions: time 7 day
Staphylococcus aureus [11] = experiment: Antibacterial activity against methicillin-resistant Staphylococcus aureus BNCC 337371 infected in Kunming mouse lung assessed as reduction on alveolar diaphragm thickening at 40 mg/kg,ip measured after 7 days by hematoxylin and eosin staining based light microscopic analysis; type: functional, organism-based; conditions: time 7.0 day
Staphylococcus aureus [12] = experiment: Antibacterial activity against methicillin-resistant Staphylococcus aureus BNCC 337371 infected in Kunming mouse lung assessed as reduction on bacterial growth at 40 mg/kg,ip dosed measured after 7 days by 10-fold dilution method; type: functional; conditions: time 7 day
Staphylococcus aureus [13] = experiment: Antibacterial activity against methicillin-resistant Staphylococcus aureus BNCC 337371 infected in Kunming mouse lung assessed as reduction on lymphocyte infiltration at 15 mg/kg,ip measured after 7 days by hematoxylin and eosin staining based light microscopic analysis; type: functional, organism-based; conditions: time 7.0 day
Staphylococcus aureus [14] = experiment: Antibacterial activity against methicillin-resistant Staphylococcus aureus BNCC 337371 infected in Kunming mouse lung assessed as reduction on alveolar diaphragm thickening at 15 mg/kg,ip measured after 7 days by hematoxylin and eosin staining based light microscopic analysis; type: functional, organism-based; conditions: time 7.0 day
Staphylococcus aureus [15] = experiment: Antibacterial activity against methicillin-resistant Staphylococcus aureus BNCC 337371 infected in Kunming mouse lung assessed as reduction on lymphocyte infiltration at 40 mg/kg,ip measured after 7 days by hematoxylin and eosin staining based light microscopic analysis; type: functional, organism-based; conditions: time 7.0 day

Row | Compound | MIC (Staphylococcus aureus [1]) [µg/mL] | MIC (Staphylococcus aureus [2]) [µg/mL] | MIC (Enterococcus faecalis) [µg/mL] | MIC (Escherichia coli) [µg/mL] | MIC [3] [µg/mL] | MIC (Bacillus subtilis) [µg/mL] | Activity (Staphylococcus aureus [4]) | Activity (Staphylococcus aureus [5]) | Activity (Staphylococcus aureus [6]) | Activity (Staphylococcus aureus [7]) | Activity (Staphylococcus aureus [8]) | ED50 (Staphylococcus aureus [9]) [mg/kg] | Activity (Staphylococcus aureus [10]) [log10CFU/ml] | Activity (Staphylococcus aureus [11]) | Activity (Staphylococcus aureus [12]) [log10CFU/ml] | Activity (Staphylococcus aureus [13]) | Activity (Staphylococcus aureus [14]) | Activity (Staphylococcus aureus [15])
1 | C=C[C@]1(C)C[C@@H](OC(=O)CSC2=NC(CCC)=C(C(=O)OC)C(C)N2)[C@]2(C)[C@H](C)CC[C@]3(CCC(=O)[C@H]32)[C@@H](C)[C@@H]1O (some centres undefined) | 4 (≈ 6.79 µM) | 8 (≈ 13.6 µM) | > 16 | > 16 | 4 (≈ 6.79 µM) | 16 (≈ 27.2 µM) | – | – | – | – | – | – | – | – | – | – | – | –
2 | C=C[C@]1(C)C[C@@H](OC(=O)CSc2nc(C)c(C(=O)OC(C)CC)c(C)n2)[C@]2(C)[C@H](C)CC[C@]3(CCC(=O)[C@H]32)[C@@H](C)[C@@H]1O (some centres undefined) | 0.5 (≈ 0.832 µM) | 0.5 (≈ 0.832 µM) | > 16 | > 16 | 0.5 (≈ 0.832 µM) | > 16 | – | – | – | – | – | – | – | – | – | – | – | –
3 | C=C[C@]1(C)C[C@@H](OC(=O)CSC2=NC(CC)=C(C(=O)OC)C(C)N2)[C@]2(C)[C@H](C)CC[C@]3(CCC(=O)[C@H]32)[C@@H](C)[C@@H]1O (some centres undefined) | 0.5 (≈ 0.87 µM) | 0.25 (≈ 0.435 µM) | > 16 | > 16 | 0.125 (≈ 0.217 µM) | 8 (≈ 13.9 µM) | – | – | – | – | – | – | – | – | – | – | – | –
4 | C=C[C@]1(C)C[C@@H](OC(=O)CSc2nc(C)c(C(=O)OC)c(CCC)n2)[C@]2(C)[C@H](C)CC[C@]3(CCC(=O)[C@H]32)[C@@H](C)[C@@H]1O | 0.25 (≈ 0.426 µM) | 0.125 (≈ 0.213 µM) | > 16 | > 16 | 0.0625 (≈ 0.107 µM) | 16 (≈ 27.3 µM) | – | – | – | – | – | – | – | – | – | – | – | –
5 | C=C[C@]1(C)C[C@@H](OC(=O)CSc2nc(C)c(C(=O)OC)c(C)n2)[C@]2(C)[C@H](C)CC[C@]3(CCC(=O)[C@H]32)[C@@H](C)[C@@H]1O | ≤ 0.0156 | ≤ 0.0156 | > 16 | > 16 | 0.0313 (≈ 0.056 µM) | 2 (≈ 3.58 µM) | Active | Active | – | – | – | – | – | – | – | – | – | –
6 | C=C[C@]1(C)C[C@@H](OC(=O)CSc2nc(C)c(C(=O)OC)c(CC(C)C)n2)[C@]2(C)[C@H](C)CC[C@]3(CCC(=O)[C@H]32)[C@@H](C)[C@@H]1O | 0.25 (≈ 0.416 µM) | 0.25 (≈ 0.416 µM) | > 16 | > 16 | 0.5 (≈ 0.832 µM) | > 16 | – | – | – | – | – | – | – | – | – | – | – | –
7 | C=C[C@]1(C)C[C@@H](OC(=O)CSC2=NC(C)=C(C(=O)OC)C(C)N2)[C@]2(C)[C@H](C)CC[C@]3(CCC(=O)[C@H]32)[C@@H](C)[C@@H]1O (some centres undefined) | 0.25 (≈ 0.446 µM) | 0.25 (≈ 0.446 µM) | > 16 | > 16 | 0.125 (≈ 0.223 µM) | 8 (≈ 14.3 µM) | – | – | – | – | – | – | – | – | – | – | – | –
8 | C=C[C@]1(C)C[C@@H](OC(=O)CSC2=NC(C(CC)CC)=C(C(=O)OC)C(C)N2)[C@]2(C)[C@H](C)CC[C@]3(CCC(=O)[C@H]32)[C@@H](C)[C@@H]1O (some centres undefined) | 0.5 (≈ 0.811 µM) | 0.25 (≈ 0.405 µM) | > 16 | > 16 | 0.25 (≈ 0.405 µM) | > 16 | – | – | – | – | – | – | – | – | – | – | – | –
9 | C=C[C@]1(C)C[C@@H](OC(=O)CSC2=NC(CC(C)C)=C(C(=O)OC)C(C)N2)[C@]2(C)[C@H](C)CC[C@]3(CCC(=O)[C@H]32)[C@@H](C)[C@@H]1O (some centres undefined) | 1 (≈ 1.66 µM) | 0.5 (≈ 0.829 µM) | > 16 | > 16 | 0.5 (≈ 0.829 µM) | > 16 | – | – | – | – | – | – | – | – | – | – | – | –
10 | C=C[C@]1(C)C[C@@H](OC(=O)CSCCN(CC)CC)[C@]2(C)[C@H](C)CC[C@]3(CCC(=O)[C@H]32)[C@@H](C)[C@@H]1O.O=C(O)/C=C/C(=O)O [TIAMULIN FUMARATE] | 0.5 | 0.5 | > 16 | > 16 | 0.5 | > 16 | – | – | Active | Active | Active | 22.9 | 1.68 | Active | 2.56 | Active | Active | Active
11 | C=C[C@]1(C)C[C@@H](OC(=O)CSc2nc(C)c(C(=O)OC)c(C(CC)CC)n2)[C@]2(C)[C@H](C)CC[C@]3(CCC(=O)[C@H]32)[C@@H](C)[C@@H]1O | 0.25 (≈ 0.407 µM) | 0.25 (≈ 0.407 µM) | > 16 | > 16 | 0.5 (≈ 0.813 µM) | > 16 | – | – | – | – | – | – | – | – | – | – | – | –
12 | C=C[C@]1(C)C[C@@H](OC(=O)CSC2=NC(C)=C(C(=O)OCC)C(C)N2)[C@]2(C)[C@H](C)CC[C@]3(CCC(=O)[C@H]32)[C@@H](C)[C@@H]1O (some centres undefined) | 0.0625 (≈ 0.109 µM) | 0.125 (≈ 0.217 µM) | > 16 | > 16 | 0.0625 (≈ 0.109 µM) | > 16 | – | – | – | – | – | – | – | – | – | – | – | –
